Laboratory results: patent US10750729B2, “Pig for atrioventricular block model, monkey for atrioventricular block model, guinea pig for atrioventricular block model, and use thereof” (Toho University, priority 2012, dated 2020)
Several values for one entry are separate records, joined by “and”; a condition that tells them apart may be missing. Equal entries are not always repeated.

How the values were obtained:
[1] = system: Monkeys (Macaca fascicularis); assay: Test Example 2: electrocardiogram of halothane-anesthetized monkeys; assay type: in vivo; conditions: monkey, 50 min after the administration
Experimental: (§1) Monkeys (Macaca fascicularis, body weight: about 3 kg, male, produced in China, purchased from a domestic breeder) were each anesthetized by intravenously administering thereto sodium thiopental (product of Mitsubishi Tanabe Pharma Corporation) at 25 mg/kg. After insertion of a tracheal cannula, an artificial respirator was used to ventilate it with 100% by volume oxygen and 1% by volume vaporized halothane. Here, the artificial respirator for experimental animals was set to a tidal volume of 20 mL/kg and a respiration rate of 15 strokes/min. Next, a cannula for drug administration was inserted to their left femoral vein. Then, ECG standard limb II leads was continuously recorded.
Each of the monkeys (n=2) of Example 2 was recorded for an electrocardiogram before drug administration.
(§2) Fingolimod (FTY720, product of Sigma-Aldrich Inc.) was dissolved in physiological saline (product of Otsuka Pharmaceutical Factory, Inc.) so as to have a concentration of 0.1 mg/mL.
(§3) After the evaluation of base control, the cannula for drug administration was inserted, and the above-prepared FTY720 solution was intravenously administered to each of the monkeys (n=2) of Example 2 for 10 min at a dose of 0.1 mg/kg. An electrocardiogram was recorded for 60 min from the start of administration of the FTY720 solution.

mouse = conditions: dose 10 times to 30 times greater than that for human; cited from earlier work
dog = conditions: dose 10 times to 30 times greater than that for human; cited from earlier work
[2] = system: Extremely small-size miniature pigs (Microminipig); assay: Test Example 1: electrocardiogram of halothane-anesthetized extremely small-size miniature pigs; assay type: in vivo; conditions: pig; for Heart rate (HR) / PR interval / QT interval / RR interval: 0.1 mg/kg/10 min i.v., individuals #1, #2, 0.1 mg/kg
From the text: Extremely small-size miniature pigs (trade name: Microminipig, body weight: about 10 kg, male, obtained from Fuji Micra Inc.) were each anesthetized by allowing them to inhale 100% by volume oxygen and 4% by volume vaporized halothane (product of Takeda Pharmaceutical Company Limited.). After insertion of a tracheal cannula, an artificial respirator was used to ventilate it with 100% by volume oxygen and 1% by volume vaporized halothane. Here, the artificial respirator for experimental animals was set to a tidal volume of 10 mL/kg and a respiration rate of 20 strokes/min. Next, a cannula for drug administration was inserted to their left femoral vein. Then, ECG standard limb II leads was continuously recorded.
Each of the extremely small-size miniature pigs (n=2) of Example 1 was recorded for an electrocardiogram before drug administration.
as §2
as §3, with “the extremely small-size miniature pigs” for “the monkeys”, “Example 1” for “Example 2”

human = conditions: 366 cases, 1.25 mg/day, Holter ECG one day after administration; cited from earlier work
Dogs = assay: Comparative Test Example 1: electrocardiogram of halothane-anesthetized dogs; assay type: in vivo; conditions: dog, 30 min recording
Experimental: as §1, with “Dogs (body” for “Monkeys (Macaca fascicularis, body”, “10” for “about 3”, “obtained” for “produced in China, purchased”, “Nosan Co., Ltd.)” for “a domestic breeder)”, “30” for “25”
Each of the dogs (n=4) of Comparative Example 1 was recorded for an electrocardiogram before drug administration.
Fingolimod (FTY720, product of Sigma-Aldrich Inc.) was dissolved in 1% by mass lactic acid solution (product of Otsuka Pharmaceutical Factory, Inc.) so as to have a concentration of 0.3 mg/mL.
(§4) After the evaluation of base control, the cannula for drug administration was inserted, and the above-prepared FTY720 solution was intravenously administered to each of the dogs (n=4) of Comparative Example 1 for 10 min at a dose of 0.3 mg/kg. An electrocardiogram was recorded for 30 min from the start of administration of the FTY720 solution.
Fingolimod (FTY720, product of Sigma-Aldrich Inc.) was dissolved in 1% by mass lactic acid solution (product of Otsuka Pharmaceutical Factory, Inc.) so as to have a concentration of 3 mg/mL.
as §4, with “3” for “0.3”

[3] = 0.1 mg/kg/10 min i.v., individuals #1, #2, 0.1 mg/kg
[4] = 10 min after the administration
[5] = 60 min after the administration

## CCCCCCCCc1ccc(CCC(N)(CO)CO)cc1 [FTY720, Fingolimod]
[1]; 0.1 mg/kg i.v.
  PR interval change versus base control: prolongation of PR interval was observed
[1]; 0.1 mg/kg/10 min i.v., individuals #1, #2
  Heart rate (HR): 105 beats/min
[1]; [3]
  Heart rate (HR): 104 beats/min
  PR interval: 71 ms and 110 ms
mouse
  occurrence of atrioventricular block: not reported
dog
  occurrence of atrioventricular block: not reported
[2]; 0.1 mg/kg i.v., 10 min after the administration
  QT interval change versus base control: prolongation of QT interval was observed
[2]; 0.1 mg/kg i.v., 60 min after the administration
  PR interval change versus base control: prolongation of PR interval was also observed
[2]; [4]
  Heart rate (HR): 137 beats/min and 192 beats/min
  PR interval: 78 ms and 71 ms
  QT interval: 271 ms and 221 ms
  RR interval: 438 ms and 311 ms
[2]; [5]
  Heart rate (HR): 197 beats/min and 108 beats/min
  PR interval: 75 ms and 89 ms
  QT interval: 227 ms and 271 ms
  RR interval: 304 ms and 552 ms
human
  cases that developed advanced atrioventricular block (2:1 atrioventricular block): 3.4%
  cases that developed second-degree atrioventricular block (Mobitz type I or type II): 6.6%
  cases that developed third-degree atrioventricular block (complete atrioventricular block): 0.3%
Dogs; high-dose 3 mg/kg/10 min i.v.
  change in PR interval: no change
  change in heart rate (HR): significantly increased
Dogs; low-dose 0.3 mg/kg/10 min i.v.
  change in PR interval: no significant change
  change in heart rate (HR): no significant change
